This note sets out measurements from patent US11596641B2, “Methods and compositions for treating meibomian gland dysfunction” (priority 2020, dated 2023).

The series can be described thus: pKa values. The series is classed as physicochemical.

Structures can show the parent of a compound that is named as a salt. Where two headings read alike, the source gives them in different places.

For `CN(C)c1ccc(O)c2c1C[C@H]1C[C@H]3[C@H](N(C)C)C(O)=C(C(N)=O)C(=O)[C@@]3(O)C(O)=C1C2=O` [minocycline hydrochloride], the “pKa value (third printed)” value (third of three pKa values, hydrochloride) turned out to be 9.3.
As to `CN(C)c1ccc(O)c2c1C[C@H]1C[C@H]3[C@H](N(C)C)C(O)=C(C(N)=O)C(=O)[C@@]3(O)C(O)=C1C2=O` [minocycline], the pKa came to 3.5 (first of three pKa values, read-out: pKa value (first given)); 7.6 (second of three pKa values, read-out: pKa value); 9.2 (third of three pKa values, read-out: pKa value (third printed)).

A word on the pKa: it is the negative logarithm of the acid dissociation constant.
